Results from the supplement of paper PMC8967900.

Tests used:
Test in all cases: selective drug sensitivity score (sDSS, relative to normal bone marrow) (sDSS (score)); higher = more potent and effective on the cell line relative to normal bone marrow cells
Conditions in all cases: 72 h
KASUMI-10 = system: KASUMI-10
COG-LL-355h = system: COG-LL-355h
NALM-6 = system: NALM-6
TANOUE = system: TANOUE
RPMI-8402 = system: RPMI-8402
MHH-CALL-2 = system: MHH-CALL-2
SUP-B15 = system: SUP-B15
CCRF-CEM = system: CCRF-CEM
COG-LL-319h = system: COG-LL-319h
MHH-CALL-4 = system: MHH-CALL-4
ALL-SIL = system: ALL-SIL
PF-382 = system: PF-382
NALL-1 = system: NALL-1
TMD5 = system: TMD5
KARPAS-45 = system: KARPAS-45
SEM cells = system: SEM cells
NALM-16 = system: NALM-16
697 = system: 697
P30-OHKUBO = system: P30-OHKUBO
KASUMI-2 = system: KASUMI-2
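Also: ALL cell lines in 384-well plates, five doses spanning 10,000-fold, each plate scaled between vehicle and 100 µmol/L benzalkonium chloride controls, sDSS an adapted area-under-curve metric.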

Row | Compound | selective drug sensitivity score (KASUMI-10) | selective drug sensitivity score (COG-LL-355h) | selective drug sensitivity score (NALM-6) | selective drug sensitivity score (TANOUE) | selective drug sensitivity score (RPMI-8402) | selective drug sensitivity score (MHH-CALL-2) | selective drug sensitivity score (SUP-B15) | selective drug sensitivity score (CCRF-CEM) | selective drug sensitivity score (COG-LL-319h) | selective drug sensitivity score (MHH-CALL-4) | selective drug sensitivity score (ALL-SIL) | selective drug sensitivity score (PF-382) | selective drug sensitivity score (NALL-1) | selective drug sensitivity score (TMD5) | selective drug sensitivity score (KARPAS-45) | selective drug sensitivity score (SEM cells) | selective drug sensitivity score (NALM-16) | selective drug sensitivity score 697 | selective drug sensitivity score (P30-OHKUBO) | selective drug sensitivity score (KASUMI-2)
1 | O=c1[nH]c(C2CCCN2)nc2c1oc1ccc(Cl)cc12 (stereo not given) (top concentration 10000 nM) | -2.7 | 2.1 | -0.4 | -2.8 | 6.2 | 1 | 1.8 | 5.8 | 2 | -1.2 | 0.6 | 2.4 | 0.8 | -2.8 | 0.9 | -1.6 | -1.9 | 6.2 | 1.2 | 7.2
2 | NS(=O)(=O)OC[C@@H]1C[C@@H](n2ccc3c(N[C@H]4CCc5ccccc54)ncnc32)C[C@@H]1O [Pevonedistat] (top concentration 10000 nM) | 19.1 | 6 | 12.1 | -3.1 | 16.2 | 10 | 15.2 | 16.4 | 12.2 | 11.5 | 13.1 | 13.2 | 9.4 | 6.7 | 12.1 | 9.9 | 4.1 | 13.1 | 11.1 | 6.3
3 | CN1CC[C@H](c2c(O)cc(O)c3c(=O)cc(-c4ccccc4Cl)oc23)[C@H](O)C1 [Alvocidib] (top concentration 10000 nM) | -2.9 | -0.1 | -1.2 | -11 | -1 | -3.5 | 0.1 | 0.6 | -2.7 | -3.8 | -3.3 | -3.3 | -7.1 | -5.7 | 2 | -3.5 | -3.6 | 1.3 | 1.1 | -2.8
4 | COc1cccc2c1C(=O)c1c(O)c3c(c(O)c1C2=O)C[C@@](O)(C(=O)CO)C[C@@H]3O[C@H]1C[C@H](N)[C@H](O)[C@H](C)O1 [Doxorubicin] (top concentration 1000 nM) | 7.48 | 3.98 | 3.38 | -7.62 | 5.58 | 10.4 | 11.4 | 7.28 | 13.4 | 9.08 | 1.68 | 3.08 | -1.92 | 3.18 | 0.78 | 4.08 | -1.82 | 9.88 | 5.18 | 7.68
5 | C[C@]1(c2nc3c(C(N)=O)cccc3[nH]2)CCCN1 [Veliparib] (top concentration 10000 nM) | -1.08 | 2.82 | -2.48 | -4.18 | -3.88 | 5.02 | -1.08 | -4.18 | 1.02 | 6.72 | -4.18 | -4.08 | -4.18 | -4.18 | -4.18 | -4.18 | -4.18 | -1.08 | 4.42 | 2.82
6 | CC1(C)OCCn2c1nc1c(N3CCOCC3)nc(-c3cnc(N)nc3)nc12 [GDC-0084] (top concentration 10000 nM) | 3.9 | 9 | 7 | -4.9 | 5.1 | 11.2 | 5.1 | 6.9 | 3 | 10.7 | 4.8 | 5.6 | 8.7 | 6.6 | 5.1 | 14.4 | 2.5 | 8.2 | 10.9 | 6
7 | Nc1cccc2c1CN(C1CCC(=O)NC1=O)C2=O (stereo not given) [Lenalidomide] (top concentration 100000 nM) | 3.22 | 2.82 | -2.28 | -2.28 | -2.08 | 1.92 | -2.28 | 0.92 | -1.78 | 5.42 | -0.88 | -2.28 | -2.28 | 5.02 | -2.28 | 3.82 | -0.38 | -2.28 | -2.28 | -2.28
8 | Cn1c(Nc2ccc(C(F)(F)F)cc2)nc2cc(Oc3ccnc(-c4ncc(C(F)(F)F)[nH]4)c3)ccc21 [NVP-RAF265] (top concentration 1000 nM) | 6.08 | 10.3 | -0.22 | 0.68 | 0.98 | 12 | 7.78 | 4.88 | 5.08 | 7.48 | 8.28 | 1.48 | 2.88 | 6.28 | 7.68 | 4.48 | 6.18 | 9.68 | 4.38 | -0.22
9 | CN1CCc2c(c3ccccc3n2Cc2ccc(C(=O)NO)cc2)C1 [Tubastatin_A] (top concentration 10000 nM) | 2.46 | 3.16 | 1.36 | -0.14 | 1.86 | 3.76 | 3.46 | 2.06 | 8.86 | -0.14 | 3.36 | 0.76 | 8.76 | -0.14 | 4.46 | 4.76 | -0.14 | 4.46 | 6.96 | 7.06
10 | CCc1cnn2c(NCc3ccc[n+]([O-])c3)cc(N3CCCC[C@H]3CCO)nc12 [Dinaciclib] (top concentration 1000 nM) | -2.24 | -4.14 | -2.04 | -14.3 | -2.64 | -3.74 | -3.64 | -2.54 | 7.16 | -4.04 | -1.74 | -5.94 | -6.24 | -10.8 | -0.34 | -4.34 | -7.04 | -2.64 | 0.26 | -7.74
11 | CCN1C(=O)CNc2ncc(-c3ccc(-c4nc[nH]n4)nc3C)nc21 [CC-115] (top concentration 10000 nM) | 0.14 | 1.44 | 1.24 | -5.46 | 0.94 | 8.34 | 2.34 | 4.24 | 11.7 | 7.34 | 1.34 | 2.14 | 4.24 | -1.66 | 1.34 | 0.04 | 1.34 | 4.14 | 2.94 | 5.74
12 | Sc1ncnc2nc[nH]c12 [Mercaptopurine] (top concentration 10000 nM) | 6.9 | 0.5 | 9.1 | 7.2 | 9.2 | 13.4 | 12.7 | 14.1 | 17.7 | 11.1 | 14.8 | 9.2 | 10.7 | 0 | 17.1 | 12.6 | 7.9 | 8 | 8.9 | 12.4
13 | CN(C)CCOc1ccc(/C(=C(/CCCl)c2ccccc2)c2ccccc2)cc1 [Toremifene] (top concentration 10000 nM) | -5.42 | 2.28 | 1.68 | -2.62 | 0.58 | 9.68 | 2.58 | -0.02 | 3.48 | 0.48 | 1.28 | 1.08 | 8.98 | 0.78 | 0.38 | 0.48 | -0.82 | 0.28 | 0.58 | 5.68
14 | COc1cc(Nc2ncc(F)c(Nc3ccc4c(n3)N(COP(=O)(O)O)C(=O)C(C)(C)O4)n2)cc(OC)c1OC [Fostamatinib] (top concentration 2500 nM) | 8.66 | 1.96 | 2.96 | -1.94 | -0.24 | 0.56 | 0.96 | -2.34 | 15.3 | -2.74 | 1.96 | -1.14 | -2.64 | -2.84 | 4.56 | 9.96 | -1.44 | 3.16 | 2.96 | -2.84
15 | CC[C@H](Nc1ncnc2[nH]cnc12)c1nc2cccc(F)c2c(=O)n1-c1ccccc1 [Idelalisib] (top concentration 10000 nM) | -0.26 | 3.14 | 7.24 | -2.16 | -0.76 | 11.3 | -2.16 | 3.64 | 1.74 | 4.04 | 0.04 | -0.36 | 3.54 | 8.84 | 1.54 | 3.54 | -2.16 | 1.84 | 7.94 | 8.04
16 | CC1CCC(n2c3cnccc3c3cnc(Nc4ccc5c(n4)CCN(C(=O)CO)C5)nc32)CC1 (stereo not given) [AMG-925] (top concentration 1000 nM) | 9.54 | 2.34 | 4.74 | 1.94 | 5.74 | 4.94 | 11.7 | 3.14 | 6.44 | 3.54 | 2.04 | 5.44 | -0.16 | -0.66 | 1.84 | 10 | 6.34 | 11.4 | 8.14 | -0.66
17 | Cc1ccc(C(=O)N(CCCN)[C@@H](c2oc3cc(Cl)ccc3c(=O)c2Cc2ccccc2)C(C)C)cc1 (top concentration 100 nM) | 1.96 | -2.64 | 3.56 | -3.64 | 2.86 | 9.46 | 4.26 | 2.76 | 13 | 6.96 | 1.06 | 0.86 | 6.06 | 11.9 | 7.16 | 5.66 | 5.76 | 1.36 | 4.06 | 3.56
18 | Nc1ncn([C@@H]2O[C@H](CO)[C@@H](O)[C@H]2O)c(=O)n1 [Azacitidine] (top concentration 10000 nM) | 3.64 | 5.14 | 3.34 | -0.86 | 3.34 | 5.84 | 11.6 | 9.34 | 7.84 | 6.14 | 5.94 | 4.44 | 4.14 | -2.26 | -1.16 | 8.74 | 1.84 | 10.9 | 6.54 | -0.36
19 | C=CC(=O)N1CCC[C@@H](n2nc(-c3ccc(Oc4ccccc4)cc3)c3c(N)ncnc32)C1 [Ibrutinib] (top concentration 1000 nM) | 0 | 0 | 2.4 | 0 | 1.1 | 0.1 | 10 | 0.1 | 5.2 | 0 | 0 | 0 | 0 | 0.1 | 3.4 | 0 | 0 | 2.2 | 1.2 | 0
